Earlier results in patent publication US20220152053A1, “METHODS AND COMPOSITIONS FOR TREATING VARIOUS DISORDERS” (Amylyx Pharmaceuticals, Inc., priority 2019, published 2022).
Read-outs that look alike come from different tables or passages of the source.

Assays:
subjects = details: prior human experience
Sprague-Dawley rats = details: oral, 50, 250, and 1000 mg/kg/day, 2 years, males and females
CD-1 mice = details: oral, 50, 250, and 1000 mg/kg/day, 2 years
liver enzyme levels = details: in vivo
cancer subjects = details: intravenous, 250-300 mg/kg/day for 14 days, repeated at 4-week intervals
ALS subjects = details: daily dosages between 9 and 21 grams, 20 weeks
[1] = test system: G93A SOD1 mouse model of ALS; details: in vivo
[2] = test system: subjects with urea cycle disorders; details: for Other (rare) adverse events, frequency: gastrointestinal, hematologic, cardiovascular, renal, psychiatric, skin, miscellaneous
rat = details: intrarectal instillation, 78 weeks
CYP 1A2 = target: T1, CYP 1A2 (Homo sapiens, UniProt P05177); details: at 20 times the intended clinical concentration (Cmax)
T1 sequence (P05177 1-516): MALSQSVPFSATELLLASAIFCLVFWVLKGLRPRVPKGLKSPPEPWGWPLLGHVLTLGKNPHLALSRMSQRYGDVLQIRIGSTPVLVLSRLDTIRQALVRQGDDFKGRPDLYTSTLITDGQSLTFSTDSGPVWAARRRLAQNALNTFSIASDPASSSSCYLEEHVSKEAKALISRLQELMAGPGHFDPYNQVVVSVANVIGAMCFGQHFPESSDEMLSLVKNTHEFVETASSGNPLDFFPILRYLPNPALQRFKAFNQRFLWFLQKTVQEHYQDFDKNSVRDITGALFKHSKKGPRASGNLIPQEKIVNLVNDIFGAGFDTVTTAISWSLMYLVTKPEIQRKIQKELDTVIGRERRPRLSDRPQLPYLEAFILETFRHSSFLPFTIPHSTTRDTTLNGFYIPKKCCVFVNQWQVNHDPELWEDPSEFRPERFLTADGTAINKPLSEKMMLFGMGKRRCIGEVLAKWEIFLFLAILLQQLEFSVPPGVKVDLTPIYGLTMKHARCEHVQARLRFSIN

CYP 2D6 = CYP 2D6 (Homo sapiens, UniProt P10635); details: at 20 times the intended clinical concentration (Cmax)
Chain of CYP 2D6 (P10635 whole entry): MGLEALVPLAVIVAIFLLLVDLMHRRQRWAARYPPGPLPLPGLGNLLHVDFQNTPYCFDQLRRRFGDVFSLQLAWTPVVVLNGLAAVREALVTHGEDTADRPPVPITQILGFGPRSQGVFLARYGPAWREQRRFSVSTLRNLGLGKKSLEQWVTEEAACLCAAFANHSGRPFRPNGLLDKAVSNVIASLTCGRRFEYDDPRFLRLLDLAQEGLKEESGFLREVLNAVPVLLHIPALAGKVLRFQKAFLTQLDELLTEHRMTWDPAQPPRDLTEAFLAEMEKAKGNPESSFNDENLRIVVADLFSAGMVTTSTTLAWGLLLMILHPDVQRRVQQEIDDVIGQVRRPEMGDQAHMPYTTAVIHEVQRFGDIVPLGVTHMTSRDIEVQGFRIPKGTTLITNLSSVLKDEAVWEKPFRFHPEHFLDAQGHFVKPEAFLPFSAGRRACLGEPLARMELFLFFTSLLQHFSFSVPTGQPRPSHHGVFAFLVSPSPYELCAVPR

## C[C@H](CCC(=O)NCCS(=O)(=O)O)[C@H]1CC[C@H]2[C@@H]3[C@@H](O)C[C@@H]4C[C@H](O)CC[C@]4(C)[C@H]3CC[C@]12C [TURSO, taurursodiol]
subjects
  frequency of adverse reactions (abdominal discomfort, abdominal pain, diarrhea, nausea, pruritus, rash): ≥ 1%
subjects; listed as TUDCA
  frequency of adverse reactions (abdominal discomfort, abdominal pain, diarrhea, nausea, pruritus, rash): > 1%

## C[C@H](CCC(=O)O)[C@H]1CC[C@H]2[C@@H]3[C@@H](O)C[C@@H]4C[C@H](O)CC[C@]4(C)[C@H]3CC[C@]12C [Ursodeoxycholic acid]
Sprague-Dawley rats
  tumorigenicity: statistically significant dose-related increased incidences of pheochromocytomas of adrenal medulla
CD-1 mice
  tumorigenicity: not tumorigenic
Liver enzyme levels
  association with liver damage: has not been associated with liver damage

## O=C(O)Cc1ccccc1 [phenylacetate, phenylacetic acid]
Cancer subjects
  Neurotoxicity: Neurotoxicity was reported

## O=C(O)CCCc1ccccc1 [phenylbutyrate, sodium phenylbutyrate]
ALS subjects
  safety and tolerability: generally safe and tolerable
[1]
  survival: increase survival
[2]; all subjects
  Decreased appetite: 4%
[2]
  Other (rare) adverse events, frequency: ≤ 2%
[2]; listed as PB
  Other (rare) adverse events, frequency: < 2%
[2]; human, in vivo
  Body odor: 3%
  bad taste or taste aversion: 3%
[2]; menstruating subjects
  amenorrhea/menstrual dysfunction (irregular menstrual cycles): 23%

## C[C@H](CCC(=O)NCCS(=O)(=O)O)[C@H]1CC[C@H]2[C@@H]3CC[C@@H]4C[C@H](O)CC[C@]4(C)[C@H]3C[C@H](O)[C@]12C [tauro-deoxycholic acid]
rat
  effect when co-administered with a carcinogenic agent: tumor-promoting effect
  tumor production, bile acid alone: did not produce any tumors

## Phenylacetylacetate
CYP 1A2
  inhibition of CYP 1A2: inhibitory
CYP 2D6
  inhibition of CYP 2D6: inhibitory
